Where two headings read alike, the source gives them in different places.
Legend:
[1] = target: T1, first (BD1: amino acids K57-E168) bromodomain of BRD4 (Homo sapiens, UniProt O60885); assay: TR-FRET bromodomain binding assay, BRD4 BD1; details: Ki calculated from IC50, probe Kd and probe concentration, read-out: TR-FRET Binding Ki: BRD4 (BDI_K57-E168)
T1 construct: His-tagged first (BD1: amino acids K57-E168)
Experimental: (§1) A time-resolved fluorescence resonance energy transfer (TR-FRET) assay was used to determine the affinities of compounds of the Examples listed in Table 1 for each bromodomain of BRD4. His-tagged first (BD1: amino acids K57-E168) and second (BD2: amino acids E352-E168) bromodomains of BRD4 were expressed and purified. An Alexa647-labeled BET-inhibitor was used as the fluorescent probe in the assay.
(§2) Compound dilution series were prepared in DMSO via an approximately 3-fold serial dilution from one of the following:
(§3) or 5-fold serial dilution from one of the following:
(§4) Assay method A: 2.5 mM-800 nM
(§5) For Assay methods A, C, D, and F: Compounds were then diluted 6:100 in assay buffer (20 mM Sodium Phosphate, pH 6.0, 50 mM NaCl, 1 mM Ethylenediaminetetraacetic acid, 0.01% Triton X-100, 1 mM DL-Dithiothreitol) to yield 3× working solutions. […] of this solution were added to the assay plate to reach a final volume of 18 μL.
(§6) TR-FRET data were normalized to the means of 24 no-compound controls (“high”) and 8 controls containing 1 μM un-labeled probe (“low”). Percent inhibition was plotted as a function of compound concentration and the data were fit with the 4 parameter logistic equation to obtain IC50s. Inhibition constants (Ki) were calculated from the IC50s, probe Kd and probe concentration. Typical Z′ values were between 0.65 and 0.75.

[2] = target: T2, second (BD2: amino acids E352-E168) bromodomain of BRD4 (Homo sapiens, UniProt O60885); assay: TR-FRET bromodomain binding assay, BRD4 BD2; details: Ki calculated from IC50, probe Kd and probe concentration, read-out: TR-FRET Binding Ki: BRD4 (BDII_E352-M457)
T2 construct: protocol
Experimental: as §1, §2, §3, §4, §5, §6

[3] = TR-FRET assay protocol (A-G, compound concentration range)
[4] = TR-FRET assay protocol (D, E or G) per compound

SMILES | Ki [1, 3] | Ki [2, 3] | Ki [1, 4] | Ki [2, 4]
Cn1nc(-c2ccccc2Oc2ccccc2)c(-c2ccc(NCCN3CCOCC3)nc2)cc1=O [Example 162, 2-methyl-5-(6-{[2-(morpholin-4-yl)ethyl]amino}pyridin-3-yl)-6-(2-phenoxyphenyl)pyridazin-3(2H)-one] | 0.109 µM | 0.0751 µM | – | –
Cc1c(-c2cc(=O)n(C)nc2-c2ccccc2Oc2ccccc2)cnn1C [Example 204, 5-(1,5-dimethyl-1H-pyrazol-4-yl)-2-methyl-6-(2-phenoxyphenyl)pyridazin-3(2H)-one] | 1.02 µM | 1.96 µM | – | –
COc1ccc(F)c(-c2cc(=O)n(C)nc2-c2ccccc2Oc2ccccc2)c1 [Example 210, 5-(2-fluoro-5-methoxyphenyl)-2-methyl-6-(2-phenoxyphenyl)pyridazin-3(2H)-one] | 9.87 µM | 15.2 µM | – | –
Cn1nc(-c2ccccc2Oc2ccccc2)c(C2CCN(S(C)(=O)=O)CC2)cc1=O [Example 90, 2-methyl-5-[1-(methylsulfonyl)piperidin-4-yl]-6-(2-phenoxyphenyl)pyridazin-3(2H)-one] | 4.55 µM | 2.33 µM | – | –
CCS(=O)(=O)c1ccc(O[C@H]2CC[C@@](C)(OC)CC2)c(-c2ccc(=O)n(C)c2)c1 [Example 360, 5-{5-(ethylsulfonyl)-2-[(cis-4-methoxy-4-methylcyclohexyl)oxy]phenyl}-1-methylpyridin-2(1H)-one] | 0.127 µM | 0.7 µM | – | –
CN(C)c1cccc(-c2cc(=O)n(C)nc2-c2ccccc2Oc2ccccc2)c1 [Example 209, 5-[3-(dimethylamino)phenyl]-2-methyl-6-(2-phenoxyphenyl)pyridazin-3(2H)-one] | > 5.49 µM | 8.48 µM | – | –
Cn1nc(-c2ccccc2Oc2ccccc2)c(-c2cccc(C(=O)N3CCSCC3)c2)cc1=O [Example 142, 2-methyl-6-(2-phenoxyphenyl)-5-[3-(thiomorpholin-4-ylcarbonyl)phenyl]pyridazin-3(2H)-one] | 2.4 µM | 1.73 µM | – | –
CCn1cc(-c2cc(=O)n(C)nc2-c2ccccc2Oc2ccccc2)cn1 [Example 212, 5-(1-ethyl-1H-pyrazol-4-yl)-2-methyl-6-(2-phenoxyphenyl)pyridazin-3(2H)-one] | 0.0898 µM | 0.117 µM | – | –
Cn1nc(-c2ccccc2Oc2ccccc2)c(-c2cncc3ccccc23)cc1=O [Example 118, 5-(isoquinolin-4-yl)-2-methyl-6-(2-phenoxyphenyl)pyridazin-3(2H)-one] | > 13 µM | 17.2 µM | – | –
CC(=O)Nc1cncc(-c2cc(=O)n(C)nc2-c2ccccc2Oc2ccccc2)c1 [Example 121, N-{5-[1-methyl-6-oxo-3-(2-phenoxyphenyl)-1,6-dihydropyridazin-4-yl]pyridin-3-yl}acetamide] | 1.12 µM | 2.96 µM | – | –
Cn1nc(-c2ccccc2Oc2ccccc2)c(-c2ccnc(N)c2)cc1=O [Example 200, 5-(2-aminopyridin-4-yl)-2-methyl-6-(2-phenoxyphenyl)pyridazin-3(2H)-one] | 0.344 µM | 0.971 µM | – | –
CN(C)C(=O)c1cccc(-c2cc(=O)n(C)nc2-c2ccccc2Oc2ccccc2)c1 [Example 109, N,N-dimethyl-3-[1-methyl-6-oxo-3-(2-phenoxyphenyl)-1,6-dihydropyridazin-4-yl]benzamide] | 1.26 µM | 1.53 µM | – | –
Cc1cccc(OCC2CC2)c1-c1ccc(=O)n(C)c1 [Example 356, 5-[2-(cyclopropylmethoxy)-6-methylphenyl]-1-methylpyridin-2(1H)-one] | 1.39 µM | 0.752 µM | – | –
CN1CCN(c2cc(-c3cc(=O)n(C)nc3-c3ccccc3Oc3ccccc3)ccn2)CC1 [Example 174, 2-methyl-5-[2-(4-methylpiperazin-1-yl)pyridin-4-yl]-6-(2-phenoxyphenyl)pyridazin-3(2H)-one] | 0.854 µM | 0.764 µM | – | –
Cn1nc(-c2ccccc2Oc2ccccc2)c(-c2ccc(N3CCNCC3)nc2)cc1=O [Example 151, 2-methyl-6-(2-phenoxyphenyl)-5-[6-(piperazin-1-yl)pyridin-3-yl]pyridazin-3(2H)-one] | 0.4 µM | 0.258 µM | – | –
COc1cc(=O)n(C)nc1-c1ccccc1OCC1CCOCC1 [Example 47, 5-methoxy-2-methyl-6-[2-(tetrahydro-2H-pyran-4-ylmethoxy)phenyl]pyridazin-3(2H)-one] | 5.28 µM | > 22.2 µM | – | –

SMILES | Ki [1, 3] | Ki [2, 3] | Ki [1, 4] | Ki [2, 4]
CC(=O)N1CC=C(c2cc(=O)n(C)nc2-c2ccccc2Oc2ccccc2)CC1 [Example 84, 5-(1-acetyl-1,2,3,6-tetrahydropyridin-4-yl)-2-methyl-6-(2-phenoxyphenyl)pyridazin-3(2H)-one] | 1.02 µM | 1.01 µM | – | –
COC(C)c1ccc(-c2cc(=O)n(C)nc2-c2ccccc2Oc2ccccc2)cc1 (stereo not shown) [Example 135, 5-[4-(1-methoxyethyl)phenyl]-2-methyl-6-(2-phenoxyphenyl)pyridazin-3(2H)-one] | 0.604 µM | 0.411 µM | – | –
CCN(CC)C(=O)c1cc(-c2cc(=O)n(C)nc2-c2ccccc2Oc2ccccc2)ccc1F [Example 181, N,N-diethyl-2-fluoro-5-[1-methyl-6-oxo-3-(2-phenoxyphenyl)-1,6-dihydropyridazin-4-yl]benzamide] | 3.95 µM | 6.16 µM | – | –
CC(C)Oc1ccc(-c2cc(=O)n(C)nc2-c2ccccc2Oc2ccccc2)cn1 [Example 123, 2-methyl-6-(2-phenoxyphenyl)-5-[6-(propan-2-yloxy)pyridin-3-yl]pyridazin-3(2H)-one] | 7.26 µM | 1.17 µM | – | –
CN(C)C(=O)c1cc(F)cc(-c2cc(=O)n(C)nc2-c2ccccc2Oc2ccccc2)c1 [Example 152, 3-fluoro-N,N-dimethyl-5-[1-methyl-6-oxo-3-(2-phenoxyphenyl)-1,6-dihydropyridazin-4-yl]benzamide] | 6.62 µM | 7.27 µM | – | –
CN(C)c1ncc(-c2cc(=O)n(C)nc2-c2ccccc2Oc2ccccc2)cn1 [Example 192, 5-[2-(dimethylamino)pyrimidin-5-yl]-2-methyl-6-(2-phenoxyphenyl)pyridazin-3(2H)-one] | 1.04 µM | 0.395 µM | – | –
Cn1nc(-c2ccccc2Oc2ccccc2)c(-c2cccc(C(=O)N3CCOCC3)c2)cc1=O [Example 175, 2-methyl-5-[3-(morpholin-4-ylcarbonyl)phenyl]-6-(2-phenoxyphenyl)pyridazin-3(2H)-one] | 2.95 µM | 2.49 µM | – | –
CCOC(=O)Cc1ccc(-c2cc(=O)n(C)nc2-c2ccccc2Oc2ccccc2)cc1 [Example 97, ethyl{4-[1-methyl-6-oxo-3-(2-phenoxyphenyl)-1,6-dihydropyridazin-4-yl]phenyl}acetate] | 0.561 µM | 0.176 µM | – | –
CC(=O)Nc1cccc(-c2cc(=O)n(C)nc2-c2ccccc2Oc2ccccc2)c1 [Example 106, N-{3-[1-methyl-6-oxo-3-(2-phenoxyphenyl)-1,6-dihydropyridazin-4-yl]phenyl}acetamide] | 0.176 µM | 0.925 µM | – | –
COc1ccc(-c2cc(=O)n(C)nc2-c2ccccc2Oc2ccccc2)cn1 [Example 116, 5-(6-methoxypyridin-3-yl)-2-methyl-6-(2-phenoxyphenyl)pyridazin-3(2H)-one] | 1.05 µM | 0.553 µM | – | –
CCS(=O)(=O)c1ccc(Oc2ccc(F)cc2F)c(-c2cn(C)c(=O)cc2OCC(F)(F)F)c1 [Example 398] | – | – | 0.203 µM | 0.0309 µM
CN(C)CCCNC(=O)c1ccc(-c2cc(=O)n(C)nc2-c2ccccc2Oc2ccccc2)cc1 [Example 150, N-[3-(dimethylamino)propyl]-4-[1-methyl-6-oxo-3-(2-phenoxyphenyl)-1,6-dihydropyridazin-4-yl]benzamide] | 0.471 µM | 0.411 µM | – | –
Cn1nc(-c2ccccc2Oc2ccc(C#N)cc2)ccc1=O [Example 3, 4-[2-(1-methyl-6-oxo-1,6-dihydropyridazin-3-yl)phenoxy]benzonitrile] | 0.851 µM | 3.43 µM | – | –
CCOc1cc(=O)n(C)cc1-c1cc(NC(=O)c2ccc(OC(C)C)cc2)ccc1Oc1ccc(F)cc1F [Example 301, N-[4-(2,4-difluorophenoxy)-3-(4-ethoxy-1-methyl-6-oxo-1,6-dihydropyridin-3-yl)phenyl]-4-(propan-2-yloxy)benzamide] | 0.0618 µM | 0.0556 µM | – | –
Cn1nc(-c2ccccc2Oc2ccccc2)c(-c2ccc(C=O)cc2)cc1=O [Example 65, 4-[1-methyl-6-oxo-3-(2-phenoxyphenyl)-1,6-dihydropyridazin-4-yl]benzaldehyde] | 0.797 µM | 0.14 µM | – | –
COc1cc(=O)n(C)nc1-c1ccccc1OC1CCCCC1 [Example 39, 6-[2-(cyclohexyloxy)phenyl]-5-methoxy-2-methylpyridazin-3(2H)-one] | 3.54 µM | 14.6 µM | – | –

From US9561231B2 (AbbVie Inc., priority 2012, dated 2017)
